Values after ≈ are worked out from the molar mass of the structure shown.
Assays:
[1] = cited from earlier work
[2] = cited from earlier work; for Ostwald coefficient (×10^6): gas solubility
[3] = In vitro cavitation measurement by passive cavitation detection (PCD); settings: C3F8; 499 KPa; about 6×10^7 MBs or 350 μl free gas
Description: Lyophilized microbubbles prepared as described in Example 1 herein were weighed and inserted into a headspace vial, and the vial was sealed by a screw cap with 1.3 mm silicone septum. Empty 50 ml syringe, 10 ml syringe filled with the desired gas and a 27 G needle, were connected to a 3 ways stopcock. The air inside the vail was drawn using the 50 ml syringe to form a vacuum, then the desired gas in the 10 ml syringe was injected into the vial. The MBs were dispersed with the desired volume (3 ml-7 ml) of degassed water, which was injected with an additional syringe and needle (23 G) through the septum cap, to prevent gas leakage. […]
Acoustic absorbing material (E in FIG. 8) was located at the top of the chamber to prevent ultrasound reflection, and a receiver (hydrophone manufactured by InSightec) was placed at an angle of […] to the direction of wave propagation (F in FIG. 8). […] These variations were recorded by the same digital pico-oscilloscope, and the data was analyzed using MATLAB software. […]
Between measurements, it was necessary to degas the water in the system to ensure that the measured cavitation was caused by the activity of microbubbles examined in the specific experiment, and not as a result of existing gas bubbles in water, or microbubbles from a previous experiment, which remained in the system. […]
The data were analyzed using MATLAB software. […]

| Structure (SMILES) | water solubility [1] | Ostwald coefficient (×10^6) [2] | Diffusivity coefficient in water [2] | cavitation dose (CD) by inner core structure, compared with hollow single-core microbubbles [3] |
| --- | --- | --- | --- | --- |
| CCOC(C)=O [ethyl acetate] | 90 mg/mL |  |  |  |
| ClCCl [DCM, dichloromethane] | 20 mg/mL (≈ 235 mM) |  |  |  |
| FS(F)(F)(F)(F)F [SF6, sulfur hexafluoride] |  | 5400 ×10^6 | 12 m^2s^−1 (×10^10) |  |
| FC(F)(F)C(F)(F)C(F)(F)C(F)(F)F [Synthesis C4F10, perfluorobutane] |  | 202 ×10^6 | 6.9 m^2s^−1 (×10^10) |  |
| FC(F)(F)C(F)(F)C(F)(F)F [Synthesis C3F8, perfluoropropane] |  | 520 ×10^6 | 7.45 m^2s^−1 (×10^10) | very low |
